Data taken from US20260232666A1, “COMPOSITIONS AND METHODS FOR INHIBITION OF RAS” (TheRas, Inc., priority 2023, published 2026).

How the values were obtained:
[1] = molecular target: T1, GDP-loaded KRAS4b (amino acids 1-169) G12C/C118S protein (Homo sapiens, UniProt P01116, C118S/G12C); experiment: Covalent cysteine 12 modification by MALDI-TOF MS, GDP-loaded KRAS G12C; format: binding; details: 15 minutes reaction time point
T1 construct: KRAS4b (amino acids 1-169) G12C/C118S protein; made in house
Procedure: (§1) Biological Example 1: Covalent Cysteine 12 Modification Analysis Using Matrix Assisted Laser Desorption Ionization-Time of Flight Mass Spectrometry (MALDI-TOF MS)
(§2) MALDI-TOF MS analysis was performed using 1 μM protein (KRAS G12C), and 1:2.5 protein to compound ratio.
(§3) Reaction: 1 μM of GppNHp, GTP, or GDP-loaded KRAS4b (amino acids 1-169) G12C/C118S protein (produced in-house by Protein Expression Laboratory, FNLCR/Leidos Biomed) in 20 mM 4-(2-hydroxyethyl)-1-piperazineethanesulfonic acid (HEPES) buffer containing 150 mM NaCl, 1 mM MgCl2, pH 7.3 was prepared freshly before assay. Twelve-μL aliquots of protein were dispensed onto low volume 384-well plate, then 30 nL of tested compounds from 1 mM DMSO stocks were added to appropriate wells using ECHO 555 acoustic liquid handler (Labcyte Inc.). For each reaction/assay, three blanks were prepared by mixing 12 μL of protein solution with 30 nL DMSO. The contents of the wells were carefully mixed by aspiration, and then each plate was sealed with an adhesive cover, centrifuged at 2000 g for 1 minute, and kept in the dark at room temperature until 5 min, 15 min, 30 min, 2 h, or 6 h collections.
(§4) Target pretreatment: Before each assay MALDI target (Bruker MPT 384 ground steel BC) was pre-treated by pipetting on each spot 0.75 μL of saturated sinapinic acid in acetonitrile (ACN).
(§5) Sample preparation: At collection time point, 2 μL of reaction mixtures were pipetted out into 15 μL MALDI matrix solution (saturated solution of sinapinic acid in 1:1 ACN:water solution containing 0.75% trifluoroacetic acid (TFA)) deposited on 384 well polypropylene plate. Resulting solution was mixed by aspiration, centrifuged at 2000 g for 1 minute, then 1.5 μL aliquots were dispensed on pre-treated MALDI target using Beckman Coulter Biomek FXP 96/384-Span-8 Laboratory Automation Workstation. Finally, the MALDI target was dried under mild vacuum to produce spots with fine crystalline structure.
(§6) Measurements: MALDI-TOF measurements were performed on a Bruker Daltonics rapiflex Tissuetyper TOF-TOF mass spectrometer using linear mode and mass range from 18.6 to 21.6 kDa. Detector gain was set to 3.3×(483 V), sample rate to 5 GS/s, real time smoothing to medium (175 MHz), laser smart beam pattern was set to: “MS Thin Layer M5”, and the laser frequency was 10000 Hz. Spectra were automatically collected using custom AutoXecute method. Laser power was auto adjusted using fuzzy control. The peak selection range was set to be between 19000 and 21500 Da. Peak evaluation uses half width parameter set to be smaller than 40 Da for processed spectrograms (centroid peak detection; smoothed by SavitzkyGolay algorithm using 7 m/z width and 2 cycles; baseline was subtracted using median algorithm with flatness 1 and median level 0.01). Fuzzy control used Proteins/Oligonucleotides protocol with minimum half width 1/10 times above threshold. Up to 40000 satisfactory shots were collected in 10000 shot steps. Dynamic termination was implemented to finish data collection when peak signal/noise ratio was reaching value of 50.
(§7) Spectra processing: Spectra were smoothed by SavitzkyGolay algorithm using 7 m/z width and three cycles. Centroid peak detection algorithm was used with signal to noise threshold set to 6, relative intensity threshold 4%, peak width 10 m/z and median baseline subtraction using flatness of 1 and median level of 0.01. Peak intensity and area under the peak were evaluated and recorded for all peaks between 19,300 Da and 21,550 Da.
(§8) Calculation of percent modification: Percent modification was calculated as a ratio of peak height for protein modified by compound to sum of peak height of remaining protein plus peak height for protein modified by compound. If multiple modifications were observed each was calculated as a ratio of peak height for given modification versus sum of peak heights for all observed protein species. Data reported in Table 4 are from 15 minutes reaction time point. […]

[2] = molecular target: T2, GTP-loaded KRAS4b (amino acids 1-169) G12C/C118S protein (Homo sapiens, UniProt P01116, C118S/G12C); experiment: Covalent cysteine 12 modification by MALDI-TOF MS, GTP-loaded KRAS G12C; format: binding; details: 15 minutes reaction time point
T2 construct: KRAS4b (amino acids 1-169) G12C/C118S protein; made in house
Procedure: as §1, §2, §3, §4, §5, §6, §7, §8

pERK in NCI-H358 cells = experiment: Cell-based pERK HTRF assay (pERK inhibition in H358 cells); details: 30 min incubation
Procedure: Biological Example 3: Cell-Based pERK HTRF Assay
pERK assays (Perkin Elmer) were used to determine the effectiveness of compounds of the present disclosure in disrupting KRAS G12C protein/effector signaling in cells.
On Day 1, cells (NCI-H358) were seeded into 96-well plates at 4×10^4 cells/well in complete growth media (RPMI, 10% FBS).
On Day 2, cells were treated with compounds at 0.25% DMSO. The source plate was created with compounds diluted in media at 5-fold the final assay concentration. The compounds were run in a 9-point concentration curve starting at 75 μM, with a 3-fold dilution between concentrations. 20 μL was transferred onto the cell plates (final volume in wells was 100 μL). Plates were harvested after 30 min incubation by aspirating media and adding kit-supplied 1× supplemented lysis buffer to all wells (75 μl per well). Plates were then placed on a plate shaker and incubated at 850 rpm for an additional 30 min.
Antibody mixture solution was prepared by diluting aliquoted d2 and Eu Cryptate antibodies 1:20 in kit supplied detection buffer, then mixed the diluted antibodies solutions (1:1 v:v). 4 μL of this solution was then added to a 384-well detection plate (Perkin Elmer; 6008230).
Samples were homogenized by pipetting up and down and then transferred (16 μL of cell lysates) from the 96-well cell culture plate to two wells of the HTRF 384-well detection plate containing the antibody solution. Plates were centrifuged (524 g for […]) and allowed to incubate between 4 and 24 h at room temperature. Maximum signal is reached after 4 h incubation time and remains stable over a period of 24 hours. Therefore, readings can be made between 4 and 24 h of incubation. Plates were centrifuged again (524 g for 1 min), and analyzed on the En Vision plate reader using the following settings: Excitation 320 nm, Bandwidth 75 nm; Emission 615 nm, Bandwidth 85 nm; Gain 100%; Flashes 100; Lag 60 μs.
The percent of modification of GppNHp, GTP, or GDP loaded KRAS G12C by MALDI-TOF MS, biochemical Raf1 RBD-KRAS G12C-GppNHp disruption assay IC50, and pERK inhibition IC50 of selected compounds described herein are shown in Table 4. For percent of modification at 15 minutes (MALDI-TOF MS) of GppNHp, GTP, or GDP loaded KRAS G12C: A: percent of modification ≥70%; B: 50≤percent of modification <70%; C: 10%≤percent of modification <50%; D: percent of modification <10%. […] For pERK inhibition in H358 cell assay: A: IC50≤0.1 μM; B: 0.1 μM<IC50≤1 μM; C: IC50>1 μM. Blanks in the table represent that compound was not tested in the indicated assay.

[3] = molecular target: T3, GppNHp-loaded KRAS4b (amino acids 1-169) G12C/C118S protein (Homo sapiens, UniProt P01116, C118S/G12C); experiment: Covalent cysteine 12 modification by MALDI-TOF MS, GppNHp-loaded KRAS G12C; format: binding; details: 15 minutes reaction time point
T3 construct: KRAS4b (amino acids 1-169) G12C/C118S protein; made in house
Procedure: as §1, §2, §3, §4, §5, §6, §7, §8

Row | Structure (SMILES) | GDP-KRAS G12C percent of modification [1] | GTP-KRAS G12C percent of modification [2] | IC50 (pERK in NCI-H358 cells) | GppNHp-KRAS G12C percent of modification [3] | IC50 (pERK in NCI-H358 cells; Homo sapiens, NCI-H358, 0.5 h)
1 | C[C@@H]1[C@H](N(C)c2nc(OC[C@@]34CCCN3C[C@H](F)C4)nc3c(F)c(-c4ccc(F)c5sc(N)c(C#N)c45)c(C(F)(F)F)cc23)CCN1C(=O)[C@H](F)Cl (atropisomer, axis not shown; (aS)) [Compound 183, 2-amino-4-((S)-4-(((2R,3R)-1-((R)-2-chloro-2-fluoroacetyl)-2-methylpyrrolidin-3-yl)(methyl)amino)-8-fluoro-2-(((2R,7aS)-2-fluorotetrahydro-1H-pyrrolizin-7a(5H)-yl)methoxy)-6-(trifluoromethyl)quinazolin-7-yl)-7-fluorobenzo[b]thiophene-3-carbonitrile] | A (percent of modification ≥70%) | A (percent of modification ≥70%) | < 100 nM | A (percent of modification ≥70%) | 
2 | CCN(c1nc(OC[C@@H]2C[C@@H](OC)CN2C)nc2c(F)c(-c3ccc(F)c4sc(N)c(C#N)c34)c(C(F)(F)F)cc12)[C@@H]1CCN(C(=O)[C@@H](F)Cl)[C@@H]1C [Compound 178] | D (percent of modification <10%) | D (percent of modification <10%) |  | D (percent of modification <10%) | 100 to 1000 nM
3 | CCN(c1nc(OC[C@@]23CCCN2C[C@H](F)C3)nc2c(F)c(-c3ccc(F)c4sc(N)c(C#N)c34)c(C(F)(F)F)cc12)[C@H]1CCN(C(=O)[C@@H](F)Cl)C1 [Compound 186] | C (10%≤percent of modification <50%) | B (50≤percent of modification <70%) |  | C (10%≤percent of modification <50%) | < 100 nM
4 | CCN(c1nc(OC[C@@]23CCCN2C[C@H](F)C3)nc2c(F)c(-c3ccc(F)c4sc(N)c(C#N)c34)c(C(F)(F)F)cc12)[C@H]1CCN(C(=O)[C@H](F)Cl)C1 [Compound 187] | B (50≤percent of modification <70%) | B (50≤percent of modification <70%) |  | B (50≤percent of modification <70%) | < 100 nM
5 | C[C@@H]1[C@H](N(C)c2nc(OC[C@@]34CCCN3C[C@H](F)C4)nc3c(F)c(-c4ccc(F)c5sc(N)c(C#N)c45)c(C(F)(F)F)cc23)CCN1C(=O)/C=C/c1nc(C(C)(F)F)no1 [Compound 188, 2-amino-4-(4-(((2R,3R)-1-((E)-3-(3-(1,1-difluoroethyl)-1,2,4-oxadiazol-5-yl)acryloyl)-2-methylpyrrolidin-3-yl)(methyl)amino)-8-fluoro-2-(((2R,7aS)-2-fluorotetrahydro-1H-pyrrolizin-7a(5H)-yl)methoxy)-6-(trifluoromethyl)quinazolin-7-yl)-7-fluorobenzo[b]thiophene-3-carbonitrile] | B (50≤percent of modification <70%) | C (10%≤percent of modification <50%) |  | B (50≤percent of modification <70%) | < 100 nM
6 | CO[C@@H]1C[C@@H](COc2nc(N(C)[C@@H]3CCN(C(=O)/C=C/c4nc(C(C)(F)F)no4)[C@@H]3C)c3cc(C(F)(F)F)c(-c4ccc(F)c5sc(N)c(C#N)c45)c(F)c3n2)N(C)C1 [Compound 189] | B (50≤percent of modification <70%) | C (10%≤percent of modification <50%) |  | B (50≤percent of modification <70%) | < 100 nM

Second part, the molecule after the results:

Row | GDP-KRAS G12C percent of modification [1] | GTP-KRAS G12C percent of modification [2] | IC50 (pERK in NCI-H358 cells) | GppNHp-KRAS G12C percent of modification [3] | IC50 (pERK in NCI-H358 cells; Homo sapiens, NCI-H358, 0.5 h) | Structure (SMILES)
7 | C (10%≤percent of modification <50%) | C (10%≤percent of modification <50%) |  | B (50≤percent of modification <70%) | < 100 nM | CCN(c1nc(OC[C@@H]2C[C@@H](OC)CN2C)nc2c(F)c(-c3ccc(F)c4sc(N)c(C#N)c34)c(C(F)(F)F)cc12)[C@@H]1CCN(C(=O)[C@H](F)Cl)[C@@H]1C [Compound 179]
8 | C (10%≤percent of modification <50%) | D (percent of modification <10%) |  | D (percent of modification <10%) | < 100 nM | C[C@@H]1CN(c2nc(OC[C@@]34CCCN3C[C@H](F)C4)nc3c(F)c(-c4ccc(F)c5sc(N)c(C#N)c45)c(C(F)(F)F)cc23)[C@@H](C)CN1C(=O)[C@@H](F)Cl [Compound 180]
9 | D (percent of modification <10%) | D (percent of modification <10%) |  | D (percent of modification <10%) | 100 to 1000 nM | C[C@@H]1CN(c2nc(OC[C@@]34CCCN3C[C@H](F)C4)nc3c(F)c(-c4ccc(F)c5sc(N)c(C#N)c45)c(C(F)(F)F)cc23)[C@@H](C)CN1C(=O)[C@H](F)Cl [Compound 181]
10 | B (50≤percent of modification <70%) | B (50≤percent of modification <70%) |  | B (50≤percent of modification <70%) | < 100 nM | COC1CC(COc2nc(N(C)C3CCN(C(=O)/C=C/c4nc(C(C)(F)F)no4)C3C)c3cc(Cl)c(-c4ccc(F)c5sc(N)c(C#N)c45)c(F)c3n2)N(C)C1 (stereo not shown) [Compound 190]
